From publication PMC7915026, “Sulfaguanidine Hybrid with Some New Pyridine-2-One Derivatives: Design, Synthesis, and Antimicrobial Activity against Multidrug-Resistant Bacteria as Dual DNA Gyrase and DHFR Inhibitors” (Antibiotics, 2021)
Values after ≈ are worked out from the molar mass of the structure shown. Where two headings read alike, the source gives them in different places.

Columns and labels:
[1] = tested on: F. oxysporum (RCMB 008002); test: Inhibition zone, paper disk/agar diffusion; format: cell-based; details: Na = no activity
Source text: (§1) The antimicrobial activity performed at the bacteriology laboratory, Botany and Microbiology Department, Faculty of Science, Al-Azhar University, Cairo, Egypt. The inhibition zone (IZ) of the tested derivatives expressed as the diameter (mm) according to the agar plate diffusion method.

[2] = tested on: C. albicans (ATCC 10231); test: Inhibition zone, paper disk/agar diffusion; format: cell-based; details: Na = no activity
Source text: as §1

[3] = tested on: C. albicans (ATCC 10231); test: MIC and MFC determination; format: cell-based
[4] = tested on: F. oxysporum (RCMB 008002); test: MIC and MFC determination; format: cell-based
[5] = tested on: S. aureus ATCC 29213; test: Inhibition zone, paper disk/agar diffusion; format: cell-based; details: S. aureus; Na = no activity
Source text: as §1

[6] = tested on: E. faecalis ATCC 29212; test: Inhibition zone, paper disk/agar diffusion; format: cell-based; details: E. faecalis; Na = no activity
Source text: as §1

[7] = tested on: B. subtilis ATCC 6633; test: Inhibition zone, paper disk/agar diffusion; format: cell-based; details: B. subtilis; Na = no activity
Source text: as §1

[8] = tested on: E. coli ATCC 25922; test: Inhibition zone, paper disk/agar diffusion; format: cell-based; details: E. coli; Na = no activity
Source text: as §1

[9] = tested on: S. typhi ATCC 6539; test: Inhibition zone, paper disk/agar diffusion; format: cell-based; details: S. typhi; Na = no activity
Source text: as §1

[10] = tested on: P. aeruginosa ATCC 27853; test: Inhibition zone, paper disk/agar diffusion; format: cell-based; details: P. aeruginosa; Na = no activity
Source text: as §1

C[C@@H]1[C@H](O)[C@@H](C)/C=C/C=C/C=C/C=C/C=C/C=C/C=C/[C@H](O[C@@H]2O[C@H](C)[C@@H](O)[C@H](N)[C@@H]2O)C[C@@H]2O[C@](O)(C[C@@H](O)C[C@@H](O)[C@H](O)CC[C@@H](O)C[C@@H](O)CC(=O)O[C@H]1C)C[C@H](O)[C@H]2C(=O)O [Amphotericin B, amphotericin B, reference compound]
Mean Diameter of the Inhibition Zone [1]: 18 ± 0.32 mm | Mean Diameter of the Inhibition Zone [2]: 22 ± 0.2 mm | Mean Diameter of the Inhibition Zone ([2]; listed as S2): 22 ± 0.20 mm | MFC ([3]; Candida albicans, ATCC10231, read-out: MFC): 37.3 µM (≈ 34.4 µg/mL) | MIC ([3]; Candida albicans, ATCC10231, read-out: MIC): 16.8 µM (≈ 15.5 µg/mL) | MFC ([3]; listed as Amp. B): 37.26 ± 0.65 µM (≈ 34.4 µg/mL) | MIC ([3]; listed as Amp. B): 16.81 ± 0.29 µM (≈ 15.5 µg/mL) | MFC ([4]; Fusarium oxysporum, RCMB008002, read-out: MFC): 70.6 µM (≈ 65.3 µg/mL) | MIC ([4]; Fusarium oxysporum, RCMB008002, read-out: MIC): 33.6 µM (≈ 31.1 µg/mL) | MFC ([4]; listed as Amp. B): 70.62 ± 0.76 µM (≈ 65.3 µg/mL) | MIC ([4]; listed as Amp. B): 33.63 ± 0.98 µM (≈ 31.1 µg/mL)

Cc1cc(C=Cc2ccc(Cl)cc2)c(C#N)c(=O)n1-c1ccc(S(=O)(=O)NC(=N)N)cc1 [Compound 9a, N-Carbamimidoyl-4-(4-(4-chlorostyryl)-3-cyano-6-methyl-2-oxopyridin-1(2H)-yl) benzene-sulfonamide]
Mean Diameter of the Inhibition Zone [1]: no activity | Mean Diameter of the Inhibition Zone [5]: 17 ± 0.78 mm | Mean Diameter of the Inhibition Zone [6]: 25 ± 0.11 mm | Mean Diameter of the Inhibition Zone [2]: 19 ± 0.65 mm | Mean Diameter of the Inhibition Zone [7]: 22 ± 0.41 mm | Mean Diameter of the Inhibition Zone [8]: 18 ± 0.30 mm | Mean Diameter of the Inhibition Zone [9]: 14 ± 0.52 mm

COc1ccc(-c2c(C(=O)Nc3ccc(S(=O)(=O)NC(=N)N)cc3)c(N)[nH]c(=O)c2C#N)cc1 [Compound 6, 2-Amino-N-(4-(carbamimidoylsulfamoyl)phenyl)-5-cyano-4-(4-methoxyphenyl)-6-oxo-1,6-dihydropyridine-3-carboxamide]
Mean Diameter of the Inhibition Zone [1]: 14 ± 0.38 mm | Mean Diameter of the Inhibition Zone [5]: 16 ± 0.54 mm | Mean Diameter of the Inhibition Zone [2]: 18 ± 0.20 mm | Mean Diameter of the Inhibition Zone [7]: 18 ± 0.12 mm | Mean Diameter of the Inhibition Zone [9]: 12 ± 0.61 mm | melting point: 265 to 268 °C

Cc1cc2csc(N)c2c(=O)n1-c1ccc(S(=O)(=O)NC(=N)N)cc1 [Compound 10, 4-(3-Amino-6-methyl-4-oxothieno[3,4-c]pyridin-5(4H)-yl)-N-carbamimidoylbenzenesulfon-amide]
Mean Diameter of the Inhibition Zone [1]: 16 ± 0.86 mm | Mean Diameter of the Inhibition Zone [5]: 17 ± 0.48 mm | Mean Diameter of the Inhibition Zone [6]: 19 ± 0.63 mm | Mean Diameter of the Inhibition Zone [2]: 14 ± 0.45 mm | Mean Diameter of the Inhibition Zone [7]: 14 ± 0.56 mm | Mean Diameter of the Inhibition Zone [10]: 21 ± 0.54 mm | Mean Diameter of the Inhibition Zone [8]: 20 ± 0.43 mm | Mean Diameter of the Inhibition Zone [9]: 12 ± 0.35 mm

COc1ccc(C=Cc2cc(C)n(-c3ccc(S(=O)(=O)NC(=N)N)cc3)c(=O)c2C#N)cc1 [Compound 9b, N-Carbamimidoyl-4-(3-cyano-4-(4-methoxystyryl)-6-methyl-2-oxopyridin-1(2H)-yl) benzene sulfonamide]
Mean Diameter of the Inhibition Zone [1]: 15 ± 0.15 mm | Mean Diameter of the Inhibition Zone [5]: 23 ± 0.12 mm | Mean Diameter of the Inhibition Zone [6]: 21 ± 0.55 mm | Mean Diameter of the Inhibition Zone [2]: 17 ± 0.56 mm | Mean Diameter of the Inhibition Zone [7]: 23 ± 0.50 mm | Mean Diameter of the Inhibition Zone [10]: 16 ± 0.20 mm | Mean Diameter of the Inhibition Zone [8]: 22 ± 0.81 mm | Mean Diameter of the Inhibition Zone [9]: 20 ± 0.16 mm

COc1ccc(-c2c(C#N)c(N)n(-c3ccc(S(=O)(=O)NC(=N)N)cc3)c(=O)c2C#N)cc1 [Compound 3b, 4-(6-Amino-3,5-dicyano-4-(4-methoxyphenyl)-2-oxopyridin-1(2H)-yl)-N-carbamimidoylbenzenesulfonamide]
Mean Diameter of the Inhibition Zone [1]: no activity | Mean Diameter of the Inhibition Zone [6]: 19 ± 0.65 mm | Mean Diameter of the Inhibition Zone [2]: 12 ± 0.36 mm | Mean Diameter of the Inhibition Zone [8]: 21 ± 0.11 mm | Mean Diameter of the Inhibition Zone [9]: 14 ± 0.16 mm | melting point: 256 to 258 °C
